# Active and inactive are the calls of the source.
# What was measured:
# [1] = target: Peroxisome proliferator-activated receptor gamma/Nuclear receptor coactivator 2 (Homo sapiens, UniProt P37231); test: TR-FRET dose response biochemical High Throughput Screening assay for agonists of the steroid receptor coactivator 2 (SRC-2) recruitment by the peroxisome proliferator-activated receptor gamma (PPAR gamma): non-selective agonists. [Related pubchem assays: 1297, 1032 ]; type: functional
# [2] = target: Mitogen-activated protein kinase 10 (Homo sapiens, UniProt P53779); test: Dose response biochemical screening assay for inhibitors of c-Jun N-Terminal Kinase 3 (JNK3). [Related pubchem assays: 746 ]
# [3] = target: Peroxisome proliferator-activated receptor gamma/Nuclear receptor coactivator 3 (Homo sapiens, UniProt P37231); test: TR-FRET dose response biochemical High Throughput Screening assay for agonists of the steroid receptor coactivator 3 (SRC-3) recruitment by the peroxisome proliferator-activated receptor gamma (PPAR gamma): non-selective agonists. [Related pubchem assays: 1301 (Confirmation screen.), 1048 (Primary screen.)]; type: functional
# [4] = target: Peroxisome proliferator-activated receptor gamma/Nuclear receptor coactivator 1 (Homo sapiens, UniProt P37231); test: TR-FRET dose response biochemical High Throughput Screening assay for agonists of the steroid receptor coactivator 1 (SRC-1) recruitment by the peroxisome proliferator-activated receptor gamma (PPAR gamma): non-selective agonists. [Related pubchem assays (depositor defined):AID1300, AID1808, AID504735, AID631]; type: protein assay
# [5] = target: T1, Tyrosine-protein phosphatase non-receptor type 22 (Homo sapiens, UniProt Q9Y2R2); type: functional
# T1 sequence (Q9Y2R2 whole entry): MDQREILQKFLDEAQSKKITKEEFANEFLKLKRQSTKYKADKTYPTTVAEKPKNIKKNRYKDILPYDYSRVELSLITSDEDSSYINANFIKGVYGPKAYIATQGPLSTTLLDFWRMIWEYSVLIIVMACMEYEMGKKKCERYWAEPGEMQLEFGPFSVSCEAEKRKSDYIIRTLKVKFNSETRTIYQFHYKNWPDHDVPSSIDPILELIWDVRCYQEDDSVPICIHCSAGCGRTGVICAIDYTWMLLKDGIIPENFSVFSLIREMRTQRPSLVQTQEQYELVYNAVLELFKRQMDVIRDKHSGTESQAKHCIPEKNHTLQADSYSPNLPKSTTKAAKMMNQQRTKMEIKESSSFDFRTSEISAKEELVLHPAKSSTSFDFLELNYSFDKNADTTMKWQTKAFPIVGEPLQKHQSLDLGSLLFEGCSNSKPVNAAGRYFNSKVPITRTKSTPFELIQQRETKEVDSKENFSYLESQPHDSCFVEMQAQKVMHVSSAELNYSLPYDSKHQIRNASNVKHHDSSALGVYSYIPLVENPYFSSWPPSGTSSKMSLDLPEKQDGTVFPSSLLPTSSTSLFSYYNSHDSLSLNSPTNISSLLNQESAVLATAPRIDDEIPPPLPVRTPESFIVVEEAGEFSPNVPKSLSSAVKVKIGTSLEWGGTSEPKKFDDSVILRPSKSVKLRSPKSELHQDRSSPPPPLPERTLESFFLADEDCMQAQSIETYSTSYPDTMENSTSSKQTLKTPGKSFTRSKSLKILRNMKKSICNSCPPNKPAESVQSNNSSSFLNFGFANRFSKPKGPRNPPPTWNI
# [6] = target: T1, Tyrosine-protein phosphatase non-receptor type 22; type: functional; remark: listed apart in the source
# [7] = target: T2, Tyrosine-protein phosphatase non-receptor type 7 (Homo sapiens, UniProt P35236); type: functional
# T2 sequence (P35236 whole entry): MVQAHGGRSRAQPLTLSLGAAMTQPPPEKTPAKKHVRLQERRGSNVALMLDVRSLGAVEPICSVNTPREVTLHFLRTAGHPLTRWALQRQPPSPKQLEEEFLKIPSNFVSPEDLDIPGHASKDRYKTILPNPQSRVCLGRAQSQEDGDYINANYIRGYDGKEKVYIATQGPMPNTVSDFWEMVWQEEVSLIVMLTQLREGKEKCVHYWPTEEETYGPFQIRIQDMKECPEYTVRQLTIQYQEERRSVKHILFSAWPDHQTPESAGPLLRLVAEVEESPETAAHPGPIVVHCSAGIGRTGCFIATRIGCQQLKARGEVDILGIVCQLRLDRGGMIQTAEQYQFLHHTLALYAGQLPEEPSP
# SUMO-activating enzyme = SUMO-activating enzyme (Homo sapiens, UniProt Q9UBT2); test: blockers of UBC9-mediated SUMO conjugation – biochemical, AlphaScreen, SUMOylation inhibitor project, confirmation (AID 2018); type: functional
# Hexokinase HKDC1 = Hexokinase HKDC1 (Homo sapiens, UniProt Q2TB90); test: inhibition of HKDC1 glucose phosphorylation – biochemical, W721R variant, dose response (AID 504729); type: functional
# [8] = NIH3T3 cell viability loss – ATP luminescence, mouse fibroblasts, counter-screen, dose response (AID 2010); type: functional, cell-based;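 also: cells exposed to compound for about 90 hours before reading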
# [9] = Trypanosoma cruzi growth suppression in host cells – NIH3T3 host cells, beta-gal luminescence, confirmation (AID 2044); type: functional, cell-based;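 also: intracellular parasites grown in NIH/3T3 mouse fibroblasts as host cells; luminescent beta-galactosidase reporter signal from transgenic T. cruzi replicating inside host cells; inhibitors lower the luminescence signal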
# Beta-galactosidase = Beta-galactosidase (Escherichia coli, UniProt Q8VNN2); type: functional
# [10] = target: T3, Kappa-type opioid receptor (Homo sapiens, UniProt P41145); type: functional
# [11] = target: T3, Kappa-type opioid receptor; type: functional; remark: listed apart in the source
# [12] = target: Eukaryotic translation initiation factor 4E (Mus musculus, UniProt P63073); test: blockers of eIF4G binding by eIF4E – biochemical, TR-FRET, dose response (AID 855); type: functional;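 also: potency for disrupting eIF4E binding to eIF4GI seen as loss of FRET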
# [13] = target: Induced myeloid leukemia cell differentiation protein Mcl-1 (Homo sapiens, UniProt Q07820); type: functional
# [14] = target: T4, Mannose-6-phosphate isomerase (Homo sapiens, UniProt P34949); test: MPI inhibition at elevated mannose 6-phosphate – biochemical, fluorescence intensity, high mannose 6-phosphate, primary screen (AID 1220)
# T4 sequence (P34949 whole entry): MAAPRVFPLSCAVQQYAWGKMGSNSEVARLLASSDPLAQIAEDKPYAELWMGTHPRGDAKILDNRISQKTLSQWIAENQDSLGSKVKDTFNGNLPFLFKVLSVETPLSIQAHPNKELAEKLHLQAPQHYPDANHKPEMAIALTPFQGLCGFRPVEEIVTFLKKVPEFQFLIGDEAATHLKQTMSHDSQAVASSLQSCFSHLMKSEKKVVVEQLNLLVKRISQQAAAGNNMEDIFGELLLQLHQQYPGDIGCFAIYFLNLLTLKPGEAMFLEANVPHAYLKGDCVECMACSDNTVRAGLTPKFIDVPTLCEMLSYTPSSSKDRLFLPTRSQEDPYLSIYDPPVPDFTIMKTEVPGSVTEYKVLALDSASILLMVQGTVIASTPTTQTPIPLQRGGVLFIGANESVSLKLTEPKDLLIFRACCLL
# INS1 = test: INS-1E survival protection against cytokine death – cell-based, luminescence, retest, dose response (AID 449756); type: functional; settings: Rattus norvegicus;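 also: cell death triggered by IL-1 beta plus TNF-alpha plus IFN-gamma mixture; protective hits raise ATP signal compared with cytokine alone wells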
# [15] = target: Peroxisome proliferator-activated receptor gamma/Nuclear receptor corepressor 2 (Homo sapiens, UniProt P37231+Q9Y618); type: functional
# [16] = target: Photoreceptor-specific nuclear receptor (Homo sapiens, UniProt Q9Y5X4); type: functional;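 also: potency for compounds that break the NR2E3 corepressor complex and count as activators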
# [17] = target: DNA (cytosine-5)-methyltransferase 1 (Homo sapiens, UniProt P26358); test: inhibition of DNA methylation by DNMT1 – biochemical, fluorescent molecular beacon, confirmation (AID 602386); type: functional
# Nonstructural protein 1 = Nonstructural protein 1 (Influenza A virus, UniProt Q194T2); type: functional, Influenza A virus (A/California/07/2009(H1N1))
# [18] = viability loss in HeLa cells – cytotoxicity control for MgcRacGAP inhibitor project, dose response (AID 624300); type: functional
# [19] = target: Matrix metalloproteinase-14 (Homo sapiens, UniProt P50281); test: Dose Response confirmation of uHTS hits for a small molecule inhibitors of MT1-MMP activation in a fluorescence assay set 1.; type: functional
# [20] = target: T5, Polyadenylate-binding protein 1 (Homo sapiens, UniProt P11940); test: MLLE binding blockers, Cy5 peptide tracer – biochemical, fluorescence polarization, Cy5-PAM2 peptide, secondary, miRNA deadenylation inhibitor project, dose response (AID 602260); type: functional; settings: read-out: IC50_Mean
# [21] = target: DNA dC->dU-editing enzyme APOBEC-3G (Homo sapiens, UniProt Q9HC16); test: Dose Response confirmation of small molecule APOBEC3G DNA Deaminase Inhibitors via a fluorescence-based single-stranded DNA deaminase assay. [Related pubchem assays (depositor defined):AID493012, AID493028]; type: functional
# [22] = target: T5, Polyadenylate-binding protein 1; test: MLLE domain peptide-binding blockers, IC50 – biochemical, fluorescence polarization, FITC-PAM2 peptide, dose response (AID 602259); type: functional; settings: read-out: IC50_Mean
# [23] = target: Intestinal-type alkaline phosphatase (Mus musculus, UniProt P24822); test: PubChem AID 488785; type: functional
# [24] = target: Intestinal-type alkaline phosphatase (Homo sapiens, UniProt P09923); test: inhibition of human intestinal alkaline phosphatase – biochemical, dose response (AID 488876); type: functional
# [25] = target: T6, Alkaline phosphatase, tissue-nonspecific isozyme (Homo sapiens, UniProt P05186); test: TNAP enzyme inhibition by screening hits, dose response, selectivity assay for mouse IAP inhibitor project, biochemical, human TNAP, uHTS hits (AID 488906); type: functional
# T6 sequence (P05186 whole entry): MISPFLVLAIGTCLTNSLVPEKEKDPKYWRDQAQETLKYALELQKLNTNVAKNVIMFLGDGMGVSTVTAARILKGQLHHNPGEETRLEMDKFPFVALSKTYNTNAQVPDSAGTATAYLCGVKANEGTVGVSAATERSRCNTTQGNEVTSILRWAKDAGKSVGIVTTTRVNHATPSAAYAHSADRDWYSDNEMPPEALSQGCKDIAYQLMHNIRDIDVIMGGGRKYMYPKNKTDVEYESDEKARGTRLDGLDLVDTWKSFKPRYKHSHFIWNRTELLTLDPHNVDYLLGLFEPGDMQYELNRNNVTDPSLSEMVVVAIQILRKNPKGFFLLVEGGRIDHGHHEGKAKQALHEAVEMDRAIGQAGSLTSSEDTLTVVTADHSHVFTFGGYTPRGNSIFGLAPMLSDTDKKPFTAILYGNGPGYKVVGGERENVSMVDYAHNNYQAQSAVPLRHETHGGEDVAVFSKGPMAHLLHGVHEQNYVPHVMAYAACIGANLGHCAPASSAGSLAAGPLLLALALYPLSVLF
# [26] = target: T6, Alkaline phosphatase, tissue-nonspecific isozyme
# T3 sequence (P41145 whole entry): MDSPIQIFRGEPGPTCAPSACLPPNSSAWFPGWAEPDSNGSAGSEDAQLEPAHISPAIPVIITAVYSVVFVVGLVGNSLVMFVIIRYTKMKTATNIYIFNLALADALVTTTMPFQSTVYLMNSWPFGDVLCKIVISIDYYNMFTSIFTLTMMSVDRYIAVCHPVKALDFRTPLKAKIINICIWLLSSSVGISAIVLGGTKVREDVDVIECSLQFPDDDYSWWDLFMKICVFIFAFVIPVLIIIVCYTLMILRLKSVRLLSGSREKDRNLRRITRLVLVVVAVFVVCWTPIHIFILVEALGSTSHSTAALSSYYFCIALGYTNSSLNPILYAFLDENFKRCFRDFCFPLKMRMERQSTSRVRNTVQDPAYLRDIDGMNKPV
# Chain of Beta-galactosidase (Q8VNN2 whole entry): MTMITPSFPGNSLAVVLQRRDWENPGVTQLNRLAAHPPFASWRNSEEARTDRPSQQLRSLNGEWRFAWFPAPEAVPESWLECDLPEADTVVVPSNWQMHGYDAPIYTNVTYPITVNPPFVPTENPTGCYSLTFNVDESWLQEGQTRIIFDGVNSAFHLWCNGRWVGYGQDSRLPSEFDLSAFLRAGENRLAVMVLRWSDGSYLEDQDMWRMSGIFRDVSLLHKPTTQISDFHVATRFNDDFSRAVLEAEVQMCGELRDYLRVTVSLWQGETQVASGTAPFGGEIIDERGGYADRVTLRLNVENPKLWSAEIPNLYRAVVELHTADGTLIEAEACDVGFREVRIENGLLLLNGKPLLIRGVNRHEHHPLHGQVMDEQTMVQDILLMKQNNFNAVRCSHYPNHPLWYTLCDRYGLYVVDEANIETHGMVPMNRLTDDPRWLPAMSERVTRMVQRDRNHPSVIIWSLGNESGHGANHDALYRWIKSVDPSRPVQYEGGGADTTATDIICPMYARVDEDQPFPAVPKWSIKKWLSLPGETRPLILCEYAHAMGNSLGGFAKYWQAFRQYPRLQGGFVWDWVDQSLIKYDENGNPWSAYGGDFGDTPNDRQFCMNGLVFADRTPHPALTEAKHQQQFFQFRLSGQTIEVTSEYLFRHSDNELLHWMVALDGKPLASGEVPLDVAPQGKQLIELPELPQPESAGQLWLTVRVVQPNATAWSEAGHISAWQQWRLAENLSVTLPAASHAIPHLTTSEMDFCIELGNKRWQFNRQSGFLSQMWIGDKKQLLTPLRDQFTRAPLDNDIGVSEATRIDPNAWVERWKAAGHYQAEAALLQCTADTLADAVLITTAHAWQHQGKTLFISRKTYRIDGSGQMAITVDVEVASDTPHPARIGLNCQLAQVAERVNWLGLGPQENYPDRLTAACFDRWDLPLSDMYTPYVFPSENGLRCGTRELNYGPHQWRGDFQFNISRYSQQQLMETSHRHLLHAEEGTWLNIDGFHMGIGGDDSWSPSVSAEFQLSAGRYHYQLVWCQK
# Chain of Peroxisome proliferator-activated receptor gamma/Nuclear receptor coactivator 3 (P37231 whole entry): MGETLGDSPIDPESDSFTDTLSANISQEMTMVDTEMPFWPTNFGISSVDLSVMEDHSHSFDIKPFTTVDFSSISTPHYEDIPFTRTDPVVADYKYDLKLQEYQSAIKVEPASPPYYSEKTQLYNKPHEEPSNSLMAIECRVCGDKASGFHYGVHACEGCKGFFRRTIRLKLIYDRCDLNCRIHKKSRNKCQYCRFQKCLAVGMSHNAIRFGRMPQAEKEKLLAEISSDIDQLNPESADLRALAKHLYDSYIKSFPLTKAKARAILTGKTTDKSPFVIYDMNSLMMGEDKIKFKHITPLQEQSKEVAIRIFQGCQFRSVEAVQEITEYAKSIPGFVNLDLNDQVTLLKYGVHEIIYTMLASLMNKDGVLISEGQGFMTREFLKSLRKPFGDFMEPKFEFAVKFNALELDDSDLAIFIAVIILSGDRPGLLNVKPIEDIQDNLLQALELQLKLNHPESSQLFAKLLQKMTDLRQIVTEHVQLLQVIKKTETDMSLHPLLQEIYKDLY
# Chain of Peroxisome proliferator-activated receptor gamma/Nuclear receptor coactivator 3 (Q9Y6Q9 whole entry, further chain): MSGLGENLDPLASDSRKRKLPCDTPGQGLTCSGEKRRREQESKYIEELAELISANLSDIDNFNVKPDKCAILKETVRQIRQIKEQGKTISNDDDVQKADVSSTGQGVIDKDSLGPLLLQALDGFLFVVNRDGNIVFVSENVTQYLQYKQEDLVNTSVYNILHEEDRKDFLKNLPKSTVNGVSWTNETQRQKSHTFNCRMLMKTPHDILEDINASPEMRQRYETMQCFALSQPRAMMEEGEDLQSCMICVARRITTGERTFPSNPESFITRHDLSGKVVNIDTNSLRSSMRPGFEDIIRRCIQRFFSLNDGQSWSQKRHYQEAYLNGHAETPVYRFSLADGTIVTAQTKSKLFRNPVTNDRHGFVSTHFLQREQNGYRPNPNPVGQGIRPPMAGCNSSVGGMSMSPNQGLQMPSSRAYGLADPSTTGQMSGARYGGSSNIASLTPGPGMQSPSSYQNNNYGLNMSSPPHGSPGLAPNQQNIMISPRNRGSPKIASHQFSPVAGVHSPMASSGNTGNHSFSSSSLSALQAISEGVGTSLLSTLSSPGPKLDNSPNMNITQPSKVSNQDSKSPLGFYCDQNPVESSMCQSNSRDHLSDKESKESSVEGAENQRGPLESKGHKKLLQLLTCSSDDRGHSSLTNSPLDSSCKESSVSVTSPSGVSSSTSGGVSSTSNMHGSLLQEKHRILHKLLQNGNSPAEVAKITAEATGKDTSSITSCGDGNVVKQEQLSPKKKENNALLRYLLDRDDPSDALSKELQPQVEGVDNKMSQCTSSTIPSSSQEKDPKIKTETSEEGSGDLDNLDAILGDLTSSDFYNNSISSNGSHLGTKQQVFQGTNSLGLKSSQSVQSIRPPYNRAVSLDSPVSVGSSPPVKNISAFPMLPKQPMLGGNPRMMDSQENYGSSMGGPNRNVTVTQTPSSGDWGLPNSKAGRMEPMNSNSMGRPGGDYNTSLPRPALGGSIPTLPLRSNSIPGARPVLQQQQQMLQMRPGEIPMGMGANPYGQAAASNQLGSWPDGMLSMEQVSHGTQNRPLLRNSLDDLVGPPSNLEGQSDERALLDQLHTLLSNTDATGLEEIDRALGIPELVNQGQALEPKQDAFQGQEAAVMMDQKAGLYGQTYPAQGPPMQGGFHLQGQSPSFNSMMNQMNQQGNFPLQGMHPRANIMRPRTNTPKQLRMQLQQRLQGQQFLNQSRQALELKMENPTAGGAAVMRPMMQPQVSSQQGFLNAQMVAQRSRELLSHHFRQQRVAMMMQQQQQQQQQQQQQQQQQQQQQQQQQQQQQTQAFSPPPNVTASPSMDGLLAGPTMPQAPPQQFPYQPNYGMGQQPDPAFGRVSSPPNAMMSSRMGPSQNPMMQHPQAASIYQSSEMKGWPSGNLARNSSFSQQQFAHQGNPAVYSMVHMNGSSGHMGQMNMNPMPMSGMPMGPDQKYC
# Chain of Hexokinase HKDC1 (Q2TB90 whole entry): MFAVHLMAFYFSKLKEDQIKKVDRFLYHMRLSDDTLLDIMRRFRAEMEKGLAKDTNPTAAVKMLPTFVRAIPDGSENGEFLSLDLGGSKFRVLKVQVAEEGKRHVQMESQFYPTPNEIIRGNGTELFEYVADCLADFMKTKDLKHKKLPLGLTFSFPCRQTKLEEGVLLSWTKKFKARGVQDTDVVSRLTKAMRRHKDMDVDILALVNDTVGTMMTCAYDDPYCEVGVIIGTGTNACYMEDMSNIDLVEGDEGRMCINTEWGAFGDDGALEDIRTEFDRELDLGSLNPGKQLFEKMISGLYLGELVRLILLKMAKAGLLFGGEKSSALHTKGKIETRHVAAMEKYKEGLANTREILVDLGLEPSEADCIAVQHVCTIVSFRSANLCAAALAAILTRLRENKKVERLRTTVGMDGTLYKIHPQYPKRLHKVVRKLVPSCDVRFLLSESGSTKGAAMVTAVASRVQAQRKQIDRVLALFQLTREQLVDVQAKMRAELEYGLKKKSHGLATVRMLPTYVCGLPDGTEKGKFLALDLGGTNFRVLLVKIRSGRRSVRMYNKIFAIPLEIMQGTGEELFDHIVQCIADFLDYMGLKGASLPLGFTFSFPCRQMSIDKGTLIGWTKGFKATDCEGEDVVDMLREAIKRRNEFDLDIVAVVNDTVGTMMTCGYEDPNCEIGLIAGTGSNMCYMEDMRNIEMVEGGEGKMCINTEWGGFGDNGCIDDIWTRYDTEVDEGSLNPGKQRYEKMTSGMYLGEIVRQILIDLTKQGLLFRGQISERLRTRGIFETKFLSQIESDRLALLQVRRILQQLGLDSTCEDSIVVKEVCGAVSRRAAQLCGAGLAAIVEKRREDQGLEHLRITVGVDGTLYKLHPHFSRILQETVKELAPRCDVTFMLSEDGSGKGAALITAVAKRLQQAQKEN
# T5 sequence (P11940 whole entry): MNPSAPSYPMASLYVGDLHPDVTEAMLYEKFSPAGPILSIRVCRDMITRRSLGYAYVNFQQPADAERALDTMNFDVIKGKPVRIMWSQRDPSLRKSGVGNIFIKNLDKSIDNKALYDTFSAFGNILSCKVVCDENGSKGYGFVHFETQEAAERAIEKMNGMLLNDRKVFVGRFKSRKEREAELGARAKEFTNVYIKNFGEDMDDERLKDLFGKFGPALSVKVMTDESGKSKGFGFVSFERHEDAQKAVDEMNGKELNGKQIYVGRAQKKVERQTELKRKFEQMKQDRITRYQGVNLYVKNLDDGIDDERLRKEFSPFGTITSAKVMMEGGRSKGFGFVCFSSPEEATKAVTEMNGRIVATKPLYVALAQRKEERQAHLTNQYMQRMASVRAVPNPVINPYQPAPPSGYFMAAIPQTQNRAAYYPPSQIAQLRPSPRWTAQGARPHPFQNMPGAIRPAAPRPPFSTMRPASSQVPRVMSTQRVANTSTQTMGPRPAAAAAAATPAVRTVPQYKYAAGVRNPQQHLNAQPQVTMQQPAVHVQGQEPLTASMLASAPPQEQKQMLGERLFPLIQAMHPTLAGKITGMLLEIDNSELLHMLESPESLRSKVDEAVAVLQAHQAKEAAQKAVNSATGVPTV
structure (smiles),measurement,setting,value
CCOc1ccc(C(=O)C2=C(O)C(=O)N(c3cc(C)on3)C2c2ccccc2OC)cc1 (configuration not stated),EC50,[1],> 26.5 µM (not active)
same,IC50,[2],> 93.1 µM (not active)
same,EC50,[3],> 79.4 µM (not active)
same,EC50,[4],> 79.4 µM (inactive)
CC(=O)NS(=O)(=O)c1ccc(NC(=O)C2C3C=CC(C3)C2C(=O)O)cc1 (configuration not stated),IC50,[5],> 79.4 µM (inactive)
same,IC50,[6],> 79.4 µM (inactive)
same,IC50,[7],> 79.4 µM (inactive)
O=C(Nc1cccc2nsnc12)c1ccc(-c2ccc(Br)cc2)o1,IC50,SUMO-activating enzyme,9.92 µM (active)
Cc1cccc(C)c1Nc1nnc(SCc2cn3cccc(C)c3n2)s1,IC50,Hexokinase HKDC1,> 80 µM (inactive)
Cc1ccccc1NC(=O)c1ccc(Nc2c([N+](=O)[O-])cc([N+](=O)[O-])c3ccccc23)cc1,EC50,[8],> 60 µM (inconclusive)
same,EC50,[9],0.937 µM (active)
same,EC50,Beta-galactosidase,11.3 µM (active)
same,IC50,[10],> 32 µM
same,IC50,[11],9.63 µM (active)
CCN1c2ccccc2N(C)C1(C)c1ccccc1 (configuration not stated),IC50,[12],49.4 µM (inactive)
same,IC50,[13],9.19 µM (active)
same,IC50,[14],13.7 µM (active)
same,AC50,INS1,2.14 µM (active)
O=c1oc2cc(O)c(Cl)cc2c2ccccc12,EC50,[1],3.81 µM (active)
same,EC50,[3],> 79.4 µM (not active)
same,IC50,[15],1.39 µM (active)
same,IC50,[16],> 39.8 µM (not active)
same,EC50,[4],> 79.4 µM (inactive)
Cc1ccc(N2C(=O)NC(=O)/C(=C\c3cc(C)n(-c4sc5c(c4C#N)CCCC5)c3C)C2=O)cc1,IC50,[17],11.1 µM (active)
same,IC50,Hexokinase HKDC1,14.1 µM (active)
CC1=NN(c2ccccc2)C(=O)/C1=C/C=C/c1ccc(N(C)C)cc1,IC50,Nonstructural protein 1,3.14 µM (active)
same,CC50,[18],95.1 µM (active)
same,EC50,Beta-galactosidase,7.93 µM (active)
same,IC50,[19],> 80 µM (inactive)
same,IC50,[10],> 32 µM
same,IC50,[11],8.28 µM (active)
CCOC(=O)c1ccc(NC(=O)CC2Sc3ncnn3C2=O)cc1 (configuration not stated),IC50,[20],> 66 µM (inactive)
same,IC50,[21],61.8 µM (active)
same,IC50,[22],> 66 µM (inactive)
COc1cccc(CNC(=O)CCNS(=O)(=O)c2ccc3[nH]c(=O)oc3c2)c1,IC50,[23],13.9 µM (active)
same,IC50,[24],> 100 µM (inactive)
same,IC50,[25],63.2 µM (active)
COc1ccc(CNC(=O)c2cc(-c3ccccc3O)[nH]n2)cc1,IC50,[5],> 79.4 µM (inactive)
same,EC50,[26],> 100 µM (not active)
same,IC50,[6],> 79.4 µM (inactive)
same,IC50,[7],> 79.4 µM (inactive)
O=C(CCN1C(=O)C2C3C=CC(C3)C2C1=O)Nc1ccccn1 (configuration not stated),IC50,[12],> 64 µM (inactive)

# Reference: ChEMBL document CHEMBL1201862, “PubChem BioAssay data set” (2004)
